In patent publication US20230085307A1, “PYRIDAZINONE COMPOUND AND HERBICIDE” (NISSAN CHEMICAL CORPORATION, priority 2019, published 2023):

Tests used:
blackgrass [1] = assay: Test Example 4: herbicidal effect by soil treatment (Table 19, symbol J); type: in vivo, blackgrass (Alopecurus myosuroides); conditions: amount of applied herbicide 320 g/ha
Method in brief: (§1)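 Scoring uses the grading scale of an earlier test, three weeks post-application. Treatment consists of spraying a diluted emulsion formulation across the surface of sterilized diluvial soil in which seeds are buried near 1.5 cm deep; boxes are kept in a greenhouse between 25° C. and 30° C.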

southern crabgrass [2] = assay: Test Example 5: herbicidal effect by foliage application, plastic box (Table 20, symbol F); type: in vivo, southern crabgrass (Digitaria ciliaris); conditions: foliage application, evaluated three weeks after application
Method in brief: (§2)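 Post-emergence foliar test in sterilized diluvial soil. Compound applied as water-diluted emulsion at a predetermined rate to 14-day-old plants; evaluation at three weeks.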

green foxtail [3] = assay: Test Example 4: herbicidal effect by soil treatment (Table 19, symbol G); type: in vivo, green foxtail (Setaria viridis); conditions: amount of applied herbicide 320 g/ha
Method in brief: as §1

lambsquarters [4] = assay: Test Example 4: herbicidal effect by soil treatment (Table 19, symbol O); type: in vivo, lambsquarters (Chenopodium album); conditions: amount of applied herbicide 320 g/ha
Method in brief: as §1

southern crabgrass [5] = assay: Test Example 4: herbicidal effect by soil treatment (Table 19, symbol F); type: in vivo, southern crabgrass (Digitaria ciliaris); conditions: amount of applied herbicide 320 g/ha
Method in brief: as §1

barnyard grass [6] = assay: Test Example 5: herbicidal effect by foliage application, plastic box (Table 20, symbol H); type: in vivo, barnyard grass (Echinochloa crus-galli); conditions: foliage application, evaluated three weeks after application
Method in brief: as §2

barnyard grass [7] = assay: Test Example 4: herbicidal effect by soil treatment (Table 19, symbol H); type: in vivo, barnyard grass (Echinochloa crus-galli); conditions: amount of applied herbicide 320 g/ha
Method in brief: as §1

lambsquarters [8] = assay: Test Example 5: herbicidal effect by foliage application, plastic box (Table 20, symbol O); type: in vivo, lambsquarters (Chenopodium album); conditions: foliage application, evaluated three weeks after application
Method in brief: as §2

wild oat [9] = assay: Test Example 4: herbicidal effect by soil treatment (Table 19, symbol I); type: in vivo, wild oat (Avena fatua); conditions: amount of applied herbicide 320 g/ha
Method in brief: as §1

velvetleaf [10] = assay: Test Example 5: herbicidal effect by foliage application, plastic box (Table 20, symbol M); type: in vivo, velvetleaf (Abutilon theophrasti); conditions: foliage application, evaluated three weeks after application
Method in brief: as §2

Italian ryegrass [11] = assay: Test Example 5: herbicidal effect by foliage application, plastic box (Table 20, symbol K); type: in vivo, Italian ryegrass (Lolium multiflorum); conditions: foliage application, evaluated three weeks after application
Method in brief: as §2

wild oat [12] = assay: Test Example 5: herbicidal effect by foliage application, plastic box (Table 20, symbol I); type: in vivo, wild oat (Avena fatua); conditions: foliage application, evaluated three weeks after application
Method in brief: as §2

velvetleaf [13] = assay: Test Example 4: herbicidal effect by soil treatment (Table 19, symbol M); type: in vivo, velvetleaf (Abutilon theophrasti); conditions: amount of applied herbicide 320 g/ha
Method in brief: as §1

persian speedwell [14] = assay: Test Example 5: herbicidal effect by foliage application, plastic box (Table 20, symbol R); type: in vivo, Persian speedwell (Veronica persica); conditions: foliage application, evaluated three weeks after application
Method in brief: as §2

false cleavers [15] = assay: Test Example 4: herbicidal effect by soil treatment (Table 19, symbol Q); type: in vivo, false cleavers (Galium spurium); conditions: amount of applied herbicide 320 g/ha
Method in brief: as §1

blackgrass [16] = assay: Test Example 5: herbicidal effect by foliage application, plastic box (Table 20, symbol J); type: in vivo, blackgrass (Alopecurus myosuroides); conditions: foliage application, evaluated three weeks after application
Method in brief: as §2

windgrass [17] = assay: Test Example 4: herbicidal effect by soil treatment (Table 19, symbol L); type: in vivo, windgrass (Apera spica-venti); conditions: amount of applied herbicide 320 g/ha
Method in brief: as §1

chickweed [18] = assay: Test Example 4: herbicidal effect by soil treatment (Table 19, symbol P); type: in vivo, common chickweed (Stellaria media); conditions: amount of applied herbicide 320 g/ha
Method in brief: as §1

false cleavers [19] = assay: Test Example 5: herbicidal effect by foliage application, plastic box (Table 20, symbol Q); type: in vivo, false cleavers (Galium spurium); conditions: foliage application, 320 g/ha, evaluated three weeks after application
Method in brief: as §2

green foxtail [20] = assay: Test Example 5: herbicidal effect by foliage application, plastic box (Table 20, symbol G); type: in vivo, green foxtail (Setaria viridis); conditions: foliage application, evaluated three weeks after application
Method in brief: as §2

windgrass [21] = assay: Test Example 5: herbicidal effect by foliage application, plastic box (Table 20, symbol L); type: in vivo, windgrass (Apera spica-venti); conditions: foliage application, evaluated three weeks after application
Method in brief: as §2

Italian ryegrass [22] = assay: Test Example 4: herbicidal effect by soil treatment (Table 19, symbol K); type: in vivo, Italian ryegrass (Lolium multiflorum); conditions: amount of applied herbicide 320 g/ha
Method in brief: as §1

redroot pigweed [23] = assay: Test Example 5: herbicidal effect by foliage application, plastic box (Table 20, symbol N); type: in vivo, redroot pigweed (Amaranthus retroflexus); conditions: foliage application, evaluated three weeks after application
Method in brief: as §2

redroot pigweed [24] = assay: Test Example 4: herbicidal effect by soil treatment (Table 19, symbol N); type: in vivo, redroot pigweed (Amaranthus retroflexus); conditions: amount of applied herbicide 320 g/ha
Method in brief: as §1

chickweed [25] = assay: Test Example 5: herbicidal effect by foliage application, plastic box (Table 20, symbol P); type: in vivo, common chickweed (Stellaria media); conditions: foliage application, evaluated three weeks after application
Method in brief: as §2

oval-leafed pondweed = assay: Test Example 1: herbicidal activity, application before weed generation under submerged conditions (Table 16, symbol C); type: in vivo, oval-leafed pondweed (Monochoria vaginalis); conditions: 320 g/ha applied herbicide
Method in brief: (§3)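 Alluvial soil was flooded to 4 cm depth, weed seeds were sown mixed and 2.5-leaf rice seedlings were transplanted. On sowing day, the compound's emulsion, diluted in water to a set dose, was applied to the water surface. Plants grew at 25–30 °C and were scored 0–5 after three weeks.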

Chinese sprangletop = assay: Test Example 3: herbicidal effect by foliage application, Wagner pot (Table 18, symbol D); type: in vivo, chinese sprangletop (Leptochloa chinensis); conditions: amount of applied herbicide 320 g/ha
Method in brief: (§4)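 Plants were sown in alluvial soil held under 0.1–0.5 cm standing water and grown 14 days in a greenhouse at 25–30 °C. An emulsifiable formulation, water-diluted to the set dose, was then sprayed onto the foliage, and effects were scored three weeks later using previously defined criteria.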

persian speedwell [26] = assay: Test Example 4: herbicidal effect by soil treatment (Table 19, symbol R); type: in vivo, Persian speedwell (Veronica persica); conditions: amount of applied herbicide 320 g/ha
Method in brief: as §1

rice flat sedge = assay: Test Example 3: herbicidal effect by foliage application, Wagner pot (Table 18, symbol E); type: in vivo, rice flat sedge (Cyperus iria); conditions: amount of applied herbicide 320 g/ha
Method in brief: as §4

Japanese bulrush = assay: Test Example 1: herbicidal activity, application before weed generation under submerged conditions (Table 16, symbol B); type: in vivo, Japanese bulrush (Schoenoplectus juncoides); conditions: 320 g/ha applied herbicide
Method in brief: as §3

barnyard grass [27] = assay: Test Example 3: herbicidal effect by foliage application, Wagner pot (Table 18, symbol H); type: in vivo, barnyard grass (Echinochloa crus-galli); conditions: amount of applied herbicide 320 g/ha
Method in brief: as §4

late watergrass = assay: Test Example 1: herbicidal activity, application before weed generation under submerged conditions (Table 16, symbol A); type: in vivo, late watergrass (Echinochloa oryzicola); conditions: 320 g/ha applied herbicide
Method in brief: as §3

COc1cccc(OC)c1-c1sc2ccc(Cl)cc2c1-c1c(O)c(C)nn(C)c1=O [2-121]
J: blackgrass, herbicidal effect rating (blackgrass [1]): 0 (Herbicidal rate of 5% or less (almost no effect))
herbicidal effect on F: southern crabgrass (southern crabgrass [2]; 320 g/ha): 0 (Herbicidal rate of 5% or less (almost no effect))
G: green foxtail, herbicidal effect rating (green foxtail [3]): 0 (Herbicidal rate of 5% or less (almost no effect))
O: lambsquarters, herbicidal effect rating (lambsquarters [4]): 0 (Herbicidal rate of 5% or less (almost no effect))
F: southern crabgrass, herbicidal effect rating (southern crabgrass [5]): 0 (Herbicidal rate of 5% or less (almost no effect))
herbicidal effect on H: barnyard grass (barnyard grass [6]; 320 g/ha): 0 (Herbicidal rate of 5% or less (almost no effect))
H: barnyard grass, herbicidal effect rating (barnyard grass [7]): 0 (Herbicidal rate of 5% or less (almost no effect))
herbicidal effect on O: lambsquarters (lambsquarters [8]; 320 g/ha): 0 (Herbicidal rate of 5% or less (almost no effect))
I: wild oat, herbicidal effect rating (wild oat [9]): 0 (Herbicidal rate of 5% or less (almost no effect))
herbicidal effect on M: velvetleaf (velvetleaf [10]; 320 g/ha): 0 (Herbicidal rate of 5% or less (almost no effect))
herbicidal effect on K: Italian ryegrass (Italian ryegrass [11]; 320 g/ha): 0 (Herbicidal rate of 5% or less (almost no effect))
herbicidal effect on I: wild oat (wild oat [12]; 320 g/ha): 0 (Herbicidal rate of 5% or less (almost no effect))
M: velvetleaf, herbicidal effect rating (velvetleaf [13]): 0 (Herbicidal rate of 5% or less (almost no effect))
herbicidal effect on R: persian speedwell (persian speedwell [14]; 320 g/ha): 0 (Herbicidal rate of 5% or less (almost no effect))
Q: false cleavers, herbicidal effect rating (false cleavers [15]): 0 (Herbicidal rate of 5% or less (almost no effect))
herbicidal effect on J: blackgrass (blackgrass [16]; 320 g/ha): 0 (Herbicidal rate of 5% or less (almost no effect))
L: windgrass, herbicidal effect rating (windgrass [17]): 0 (Herbicidal rate of 5% or less (almost no effect))
P: chickweed, herbicidal effect rating (chickweed [18]): 3 (Herbicidal rate of 40% or more and less than 70%)
herbicidal effect on Q: false cleavers (false cleavers [19]): 2 (Herbicidal rate of 20% or more and less than 40%)
herbicidal effect on G: green foxtail (green foxtail [20]; 320 g/ha): 0 (Herbicidal rate of 5% or less (almost no effect))
herbicidal effect on L: windgrass (windgrass [21]; 320 g/ha): 0 (Herbicidal rate of 5% or less (almost no effect))
K: Italian ryegrass, herbicidal effect rating (Italian ryegrass [22]): 0 (Herbicidal rate of 5% or less (almost no effect))
herbicidal effect on N: redroot pigweed (redroot pigweed [23]; 320 g/ha): 0 (Herbicidal rate of 5% or less (almost no effect))
N: redroot pigweed, herbicidal effect rating (redroot pigweed [24]): 0 (Herbicidal rate of 5% or less (almost no effect))
herbicidal effect on P: chickweed (chickweed [25]; 320 g/ha): 3 (Herbicidal rate of 40% or more and less than 70%)

CSCCSCc1ccc(-c2sc3ccc(F)cc3c2-c2c(O)c(C)nn(C)c2=O)cc1 [2-329]
herbicidal effect on J: blackgrass (blackgrass [1]): 0 (Herbicidal rate of 5% or less (almost no effect))
F: southern crabgrass, herbicidal effect (criteria 0-5) (southern crabgrass [2]; AAH 320 g/ha): 5 (Herbicidal rate of 90% or more (almost completely withered))
herbicidal effect on G: green foxtail (green foxtail [3]): 0 (Herbicidal rate of 5% or less (almost no effect))
Herbicidal effect on C: oval-leafed pondweed (grade 0-5) (oval-leafed pondweed): 0 (Herbicidal rate of 5% or less (almost no effect))
herbicidal effect on D: Chinese sprangletop (Chinese sprangletop): 4 (Herbicidal rate of 70% or more and less than 90%)
herbicidal effect on R: persian speedwell (persian speedwell [26]): 0 (Herbicidal rate of 5% or less (almost no effect))
herbicidal effect on O: lambsquarters (lambsquarters [4]): 0 (Herbicidal rate of 5% or less (almost no effect))
herbicidal effect on E: rice flat sedge (rice flat sedge): 4 (Herbicidal rate of 70% or more and less than 90%)
Herbicidal effect on B: Japanese bulrush (grade 0-5) (Japanese bulrush): 0 (Herbicidal rate of 5% or less (almost no effect))
herbicidal effect on H: barnyard grass (barnyard grass [27]): 5 (Herbicidal rate of 90% or more (almost completely withered))
herbicidal effect on F: southern crabgrass (southern crabgrass [5]): 0 (Herbicidal rate of 5% or less (almost no effect))
H: barnyard grass, herbicidal effect (criteria 0-5) (barnyard grass [6]; AAH 320 g/ha): 4 (Herbicidal rate of 70% or more and less than 90%)
herbicidal effect on H: barnyard grass (barnyard grass [7]): 0 (Herbicidal rate of 5% or less (almost no effect))
O: lambsquarters, herbicidal effect (criteria 0-5) (lambsquarters [8]; AAH 320 g/ha): 4 (Herbicidal rate of 70% or more and less than 90%)
herbicidal effect on I: wild oat (wild oat [9]): 0 (Herbicidal rate of 5% or less (almost no effect))
M: velvetleaf, herbicidal effect (criteria 0-5) (velvetleaf [10]; AAH 320 g/ha): 5 (Herbicidal rate of 90% or more (almost completely withered))
K: Italian ryegrass, herbicidal effect (criteria 0-5) (Italian ryegrass [11]; AAH 320 g/ha): 4 (Herbicidal rate of 70% or more and less than 90%)
I: wild oat, herbicidal effect (criteria 0-5) (wild oat [12]; AAH 320 g/ha): 3 (Herbicidal rate of 40% or more and less than 70%)
herbicidal effect on M: velvetleaf (velvetleaf [13]): 0 (Herbicidal rate of 5% or less (almost no effect))
R: persian speedwell, herbicidal effect (criteria 0-5) (persian speedwell [14]; AAH 320 g/ha): 5 (Herbicidal rate of 90% or more (almost completely withered))
herbicidal effect on Q: false cleavers (false cleavers [15]): 0 (Herbicidal rate of 5% or less (almost no effect))
J: blackgrass, herbicidal effect (criteria 0-5) (blackgrass [16]; AAH 320 g/ha): 4 (Herbicidal rate of 70% or more and less than 90%)
herbicidal effect on L: windgrass (windgrass [17]): 0 (Herbicidal rate of 5% or less (almost no effect))
herbicidal effect on P: chickweed (chickweed [18]): 0 (Herbicidal rate of 5% or less (almost no effect))
G: green foxtail, herbicidal effect (criteria 0-5) (green foxtail [20]; AAH 320 g/ha): 5 (Herbicidal rate of 90% or more (almost completely withered))
L: windgrass, herbicidal effect (criteria 0-5) (windgrass [21]; AAH 320 g/ha): 5 (Herbicidal rate of 90% or more (almost completely withered))
herbicidal effect on K: Italian ryegrass (Italian ryegrass [22]): 0 (Herbicidal rate of 5% or less (almost no effect))
N: redroot pigweed, herbicidal effect (criteria 0-5) (redroot pigweed [23]; AAH 320 g/ha): 5 (Herbicidal rate of 90% or more (almost completely withered))
herbicidal effect on N: redroot pigweed (redroot pigweed [24]): 3 (Herbicidal rate of 40% or more and less than 70%)
Herbicidal effect on A: late watergrass (grade 0-5) (late watergrass): 2 (Herbicidal rate of 20% or more and less than 40%)
P: chickweed, herbicidal effect (criteria 0-5) (chickweed [25]; AAH 320 g/ha): 5 (Herbicidal rate of 90% or more (almost completely withered))
